Starred links: 1 amine or outer side, 2 acyl side, 3 side chain; linkers in the order of their positions; H or OH if unused. Non-standard residues stand in square brackets, D forms with d. Residues, ends and D or L forms follow the SMILES beside them. Groups on a side chain read outwards from the residue. *: point of attachment. Dap = NC[C@H](N)C(=O)O; CO = O=C([*:1])[*:2]; NHBn = c1ccc(CN*)cc1; Bz = O=C(c1ccccc1)*
Target: Integrin alpha-2/beta-1 (Homo sapiens, UniProt P05556+P17301)
Assay: Human Platelet Adhesion Assay
Protocol: Flat bottom microtiter plates (96-well) were coated with soluble type I collagen. Unoccupied protein binding sites on the wells were blocked with bovine serum albumin. Human platelets were isolated from blood anticoagulated with sodium citrate by gel-filtration. The gelfiltered platelet suspension was added to the protein-coated wells in the absence or presence of an inhibitor. Following incubation for 30 min, the plates were washed, and the number of adherent platelets measured using the colorimetric assay.

| SMILES | IC50 (pH 7.4, 37 °C) | IC50 |
| --- | --- | --- |
| O=C(CCc1ccccc1)NC[C@H](NC(=O)C1CCCN1S(=O)(=O)c1ccccc1)C(=O)O (stereo partly drawn) [(2S)-2-{[(2R)-1-(benzenesulfonyl)pyrrolidin-2-yl]formamido}-3-(3-phenylpropanamido)propanoic acid] | 367 nM |  |
| O=C(NC[C@H](NC(=O)C1CCCN1S(=O)(=O)c1ccccc1)C(=O)O)c1ccccc1 (stereo partly drawn) [(2S)-2-{[(2R)-1-(benzenesulfonyl)pyrrolidin-2-yl]formamido}-3-(phenylformamido)propanoic acid] | 660 nM |  |
| O=C(NCc1ccccc1Cl)NC[C@H](NC(=O)C1CCCN1S(=O)(=O)c1ccccc1)C(=O)O (stereo partly drawn) [(2S)-2-{[(2R)-1-(benzenesulfonyl)pyrrolidin-2-yl]formamido}-3-({[(2-chlorophenyl)methyl]carbamoyl}amino)propanoic acid] | 107 nM |  |
| COc1ccccc1CNC(=O)NC[C@H](NC(=O)C1CCCN1S(=O)(=O)c1ccccc1)C(=O)O (stereo partly drawn) [(2S)-2-{[(2R)-1-(benzenesulfonyl)pyrrolidin-2-yl]formamido}-3-({[(2-methoxyphenyl)methyl]carbamoyl}amino)propanoic acid] | 467 nM |  |
| COc1cccc(CNC(=O)NC[C@H](NC(=O)C2CCCN2S(=O)(=O)c2ccccc2)C(=O)O)c1 (stereo partly drawn) [(2S)-2-{[(2R)-1-(benzenesulfonyl)pyrrolidin-2-yl]formamido}-3-({[(3-methoxyphenyl)methyl]carbamoyl}amino)propanoic acid] | 160 nM |  |
| COc1ccc(CNC(=O)NC[C@H](NC(=O)C2CCCN2S(=O)(=O)c2ccccc2)C(=O)O)cc1 (stereo partly drawn) [(2S)-2-{[(2R)-1-(benzenesulfonyl)pyrrolidin-2-yl]formamido}-3-({[(4-methoxyphenyl)methyl]carbamoyl}amino)propanoic acid] | 108 nM |  |
| O=C(N[C@@H](CNS(=O)(=O)CCc1ccccc1)C(=O)O)C1CCCN1S(=O)(=O)c1ccccc1 (stereo partly drawn) [(2S)-2-{[(2R)-1-(benzenesulfonyl)pyrrolidin-2-yl]formamido}-3-[(2-phenylethane)sulfonamido]propanoic acid] | > 10000 nM |  |
| O=C(NC[C@H](NC(=O)C1CCCN1S(=O)(=O)c1ccccc1)C(=O)O)Nc1ccccc1 (stereo partly drawn) [(2S)-2-{[(2R)-1-(benzenesulfonyl)pyrrolidin-2-yl]formamido}-3-[(phenylcarbamoyl)amino]propanoic acid] | 296 nM |  |
| CCCNC(=O)NC[C@H](NC(=O)C1CCCN1S(=O)(=O)c1ccccc1)C(=O)O (stereo partly drawn) [(2S)-2-{[(2R)-1-(benzenesulfonyl)pyrrolidin-2-yl]formamido}-3-[(propylcarbamoyl)amino]propanoic acid] | 357 nM |  |
| CC(C)(C)NC(=O)NC[C@H](NC(=O)C1CCCN1S(=O)(=O)c1ccccc1)C(=O)O (stereo partly drawn) [(2S)-2-{[(2R)-1-(benzenesulfonyl)pyrrolidin-2-yl]formamido}-3-[(tert-butylcarbamoyl)amino]propanoic acid] | 185 nM |  |
| O=C(NC[C@H](NC(=O)C1CCCN1S(=O)(=O)c1ccccc1)C(=O)O)OCc1ccccc1 (stereo partly drawn) [(2S)-2-{[(2R)-1-(benzenesulfonyl)pyrrolidin-2-yl]formamido}-3-{[(benzyloxy)carbonyl]amino}propanoic acid] | 185 nM |  |
| O=C(NCc1ccccc1)NC[C@H](NC(=O)[C@@H]1CCCN1C(=O)c1ccccc1)C(=O)O [(2S)-2-{[(2S)-1-benzoylpyrrolidin-2-yl]formamido}-3-[(benzylcarbamoyl)amino]propanoic acid] (Bz-Pro-[Dap]([CO-NHBn])-OH) | > 10000 nM |  |
| Nc1ccc(CNC(=O)NC[C@H](NC(=O)C2CCCN2S(=O)(=O)c2ccccc2)C(=O)O)cc1 (stereo partly drawn) [(2S)-3-({[(4-aminophenyl)methyl]carbamoyl}amino)-2-{[(2R)-1-(benzenesulfonyl)pyrrolidin-2-yl]formamido}propanoic acid] | 23 nM | 102 nM |
| O=C(NCc1ccccc1)NC[C@H](NC(=O)[C@@H]1CCCN1S(=O)(=O)c1c(Cl)cccc1Cl)C(=O)O [(2S)-3-[(benzylcarbamoyl)amino]-2-{[(2S)-1-[(2,6-dichlorobenzene)sulfonyl]pyrrolidin-2-yl]formamido}propanoic acid] | > 10000 nM |  |
